This is an account of results in patent US11613556B2, “Oxysterols and methods of use thereof” (Sage Therapeutics, Inc., priority 2016, dated 2023).

The structures appear in SMILES notation. Where only a bound is given, the exact number is not on record here.

In the assay the target is glutamate-activated channels of the GRIN1/2A subtype stably transfected in HEK 293 cells (Homo sapiens (Human), UniProt Q05586+Q12879). The experiment in a line: Automated patch-clamp system (QPatch HTX), percent potentiation at 1 μM. Format: cell-based. The note with it: HEK293, 1 μM test compound, 300 μM NMDA with 8 μM glycine, HEK 293 GRIN1/2A, read-out: GluN2A PCA % potentiation at 1 μM. The procedure:
NMDA potentiation in mammalian cells which expressed NMDA receptors was assessed using the automatic patch-clamp system can be used determine the NAM activity of compounds as described below. An whole cell patch-clamp system can be used determine the PAM activity of compounds as described below.
Automated Patch-Clamp System (OPatch HTX):
In this study, HEK 293 cells stably transfected with glutamate-activated channels of the GRIN1/2A subtype will be used together with submaximal NMDA concentrations (300 μM NMDA, co-application with 8 μM Glycine) to investigate the negative allosteric modulation of the test compounds.
In general, cells will be passaged at a confluence of about 80% to […]. For electrophysiological measurements cells will be harvested at a confluence of about 80% to 90% from sterile culture flasks containing culture complete medium. Cells will be transferred as suspension in PBS to the QPatch 16X or QPatch HTX system to the centrifuge/washer directly.
Standard Laboratory Conditions: Cells will be incubated at 37° C. in a humidified atmosphere with 5% CO2 (rel. humidity about 95%).
Culture media: The cells will be continuously maintained in and passaged in sterile culture flasks containing a 1:1 mixture of Dulbecco's modified eagle medium and nutrient mixture F-12 (D-MEM/F-12 1×, liquid, with L-Glutamine) supplemented with 10% fetal bovine serum, 1% Penicillin/Streptomycin solution, and 50 μM AP-5 blocker.
Antibiotics: The complete medium as indicated above is supplemented with 100 μg/mL hygromycin, 15 μg/mL blasticidin and 1 μg/mL puromycin.
Induction of Expression: 2.5 μg/mL tetracycline is added 24 h before start of experiments.
Dose levels are in terms of test compounds, as supplied. Vehicle will be added to achieve a stock concentration of 10 mM (storage at −10° C. to −30° C.). A further stock solutions of 1.0 mM will be prepared in DMSO. Details of stock solution usage (thawing, dose formulations) will be documented in the raw data. The time period of stock solution usage will be detailed in the report.
Test Compound Concentrations
One test concentration of 1.0 μM will be tested.
All test solutions will be prepared by diluting the stock solutions with either Mg-free bath solution only or Mg-free bath solution containing NMDA (300 μM) and glycine (8.0 μM) shortly prior to the electrophysiological experiments and kept at room temperature (19° C. to 30° C.) when in use. 0.1% DMSO will be used as vehicle.
Frequency of preparation: For each test concentration, fresh solutions of test compounds will be prepared every day.
Stability of dose formulation: All preparation times will be documented in the raw data. Any observations regarding instability of test compounds will be mentioned in the raw data.
Storage of dose formulation: On the day of experimentation dose formulations will be maintained at room temperature (19° C. to 30° C.) when in use.
For preparing the experiments and for formation of the giga-ohm-seal, the following standard bath solution will be used:
Sodium Chloride: 137 mM; Potassium Chloride: 4 mM; Calcium Chloride: 1.8 mM; Magnesium Chloride: 1 mM; HEPES: 10 mM; D-Glucose: 10 mM; Cremophor: 0.02%; pH (NaOH): 7.4
The 1× bath solution will be prepared by diluting 10× bath solution without Glucose and 100× Glucose solution with water at least every 7 days. Both stock solutions have been prepared prior to the experimental start of the present study and stored at 1° C. to 9° C. (10× bath solution) or −10° C. to −30° (100× Glucose solution). The batch number(s) of the bath solution(s) used in the experiments will be documented in the raw data. When in use, the 1× bath solution will be kept at room temperature (19° C. to 30° C.). When not in use, the 1× bath solution will be stored at 1° C. to 9° C.
After the giga-seal was formed the following Mg-free bath solution will be used:
Sodium Chloride: 137 mM; Potassium Chloride: 4 mM; Calcium Chloride; 2.8 mM; HEPES: 10 mM; D-Glucose: 10 mM; Cremophor: 0.02%; pH (NaOH): 7.4 […]

glutamate-activated channels of the GRIN1/2A subtype stably transfected in HEK 293 cells, sequence (Q12879 whole entry, looked up, other chains not shown): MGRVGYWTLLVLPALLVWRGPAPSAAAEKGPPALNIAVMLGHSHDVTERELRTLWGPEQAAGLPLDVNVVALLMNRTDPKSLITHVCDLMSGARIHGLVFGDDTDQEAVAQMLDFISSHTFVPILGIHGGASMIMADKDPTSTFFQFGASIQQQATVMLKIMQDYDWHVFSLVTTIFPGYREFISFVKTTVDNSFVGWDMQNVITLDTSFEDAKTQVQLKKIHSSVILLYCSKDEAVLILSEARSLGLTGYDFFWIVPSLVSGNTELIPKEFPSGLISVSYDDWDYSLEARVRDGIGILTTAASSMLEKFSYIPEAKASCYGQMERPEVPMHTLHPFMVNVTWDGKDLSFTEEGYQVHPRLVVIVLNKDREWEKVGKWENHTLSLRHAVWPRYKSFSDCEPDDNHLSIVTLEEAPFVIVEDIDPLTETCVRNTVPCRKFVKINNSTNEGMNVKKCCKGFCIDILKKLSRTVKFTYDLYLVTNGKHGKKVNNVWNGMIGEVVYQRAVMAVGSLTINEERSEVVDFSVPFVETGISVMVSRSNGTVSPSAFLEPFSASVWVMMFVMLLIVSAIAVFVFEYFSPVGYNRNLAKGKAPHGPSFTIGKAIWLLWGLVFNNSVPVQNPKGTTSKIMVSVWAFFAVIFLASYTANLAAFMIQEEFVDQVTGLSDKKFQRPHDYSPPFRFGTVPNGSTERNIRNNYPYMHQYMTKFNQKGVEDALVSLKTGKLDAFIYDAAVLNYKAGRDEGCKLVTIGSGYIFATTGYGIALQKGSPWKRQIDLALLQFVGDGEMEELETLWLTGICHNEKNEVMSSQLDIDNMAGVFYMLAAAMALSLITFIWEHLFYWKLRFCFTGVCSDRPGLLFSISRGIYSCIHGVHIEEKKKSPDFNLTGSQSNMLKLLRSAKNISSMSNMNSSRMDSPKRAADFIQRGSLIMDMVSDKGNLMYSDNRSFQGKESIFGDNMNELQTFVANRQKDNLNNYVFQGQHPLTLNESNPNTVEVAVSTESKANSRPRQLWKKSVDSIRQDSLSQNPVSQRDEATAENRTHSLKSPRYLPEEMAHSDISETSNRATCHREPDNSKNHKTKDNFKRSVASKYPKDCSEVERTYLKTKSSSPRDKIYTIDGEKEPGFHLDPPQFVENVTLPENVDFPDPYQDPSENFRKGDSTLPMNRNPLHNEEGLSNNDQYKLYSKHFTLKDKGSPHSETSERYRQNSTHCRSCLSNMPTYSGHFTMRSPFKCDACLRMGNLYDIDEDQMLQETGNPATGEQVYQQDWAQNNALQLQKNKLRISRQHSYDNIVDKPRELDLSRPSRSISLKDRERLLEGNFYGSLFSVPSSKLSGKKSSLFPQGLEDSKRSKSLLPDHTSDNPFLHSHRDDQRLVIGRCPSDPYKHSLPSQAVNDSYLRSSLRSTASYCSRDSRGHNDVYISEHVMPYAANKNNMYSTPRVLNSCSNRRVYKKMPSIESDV

For `CC[C@]1(O)CC[C@@]2(C)[C@H](CC[C@@H]3[C@@H]2CC[C@]2(C)[C@@H]([C@H](C)[C@H](O)CCC(C)(C)C)CC[C@@H]32)C1` [Compound 15, (3S,5R,8R,9S,10S,13S,14S,17R)-3-ethyl-17-((2S,3R)-3-hydroxy-6,6-dimethylheptan-2-yl)-10,13-dimethylhexadecahydro-1H-cyclopenta[a]phenanthren-3-ol], the activation at 1 µM was -40 to -10%. The same measure for `CC[C@]1(O)CC[C@@]2(C)[C@@H](CC[C@@H]3[C@@H]2CC[C@]2(C)[C@@H]([C@H](C)[C@@H](O)C(F)(F)F)CC[C@@H]32)C1` [Compound 16, (3S,5S,8R,9S,10S,13S,14S,17R)-3-ethyl-10,13-dimethyl-17-((2S,3R)-4,4,4-trifluoro-3-hydroxybutan-2-yl)hexadecahydro-1H-cyclopenta[a]phenanthren-3-ol]: -40 to -10%; for `CC[C@]1(O)CC[C@@]2(C)[C@@H](CC[C@@H]3[C@@H]2CC[C@]2(C)[C@@H]([C@H](C)[C@H](O)C4CCCC4)CC[C@@H]32)C1` [Compound 58, (3S,5S,8R,9S,10S,13S,14S,17R)-17-((1R,2S)-1-cyclopentyl-1-hydroxypropan-2-yl)-3-ethyl-10,13-dimethylhexadecahydro-1H-cyclopenta[a]phenanthren-3-ol]: -40 to -10%. The same measure for `CC[C@]1(O)CC[C@@]2(C)[C@H](CC[C@@H]3[C@@H]2CC[C@]2(C)[C@@H]([C@H](C)[C@@H](O)CCC(C)C)CC[C@@H]32)C1` [Compound 64, (3S,5R,8R,9S,10S,13S,14S,17R)-3-ethyl-17-((2S,3S)-3-hydroxy-6-methylheptan-2-yl)-10,13-dimethylhexadecahydro-1H-cyclopenta[a]phenanthren-3-ol]: -40 to -10%. The same measure for `CC[C@]1(O)CC[C@@]2(C)[C@@H](CC[C@@H]3[C@@H]2CC[C@]2(C)[C@@H]([C@H](C)[C@@H](O)C4CCOCC4)CC[C@@H]32)C1` [Compound 86, (3S,5S,8R,9S,10S,13S,14S,17R)-3-ethyl-17-((1S,2S)-1-hydroxy-1-(tetrahydro-2H-pyran-4-yl)propan-2-yl)-10,13-dimethylhexadecahydro-1H-cyclopenta[a]phenanthren-3-ol]: -40 to -10%; for `CC[C@]1(O)CC[C@@]2(C)[C@@H](CC[C@@H]3[C@@H]2CC[C@]2(C)[C@@H]([C@H](C)[C@@H](O)C4CC4)CC[C@@H]32)C1` [Compound 10, (3S,5S,8R,9S,10S,13S,14S,17R)-17-((1S,2S)-1-cyclopropyl-1-hydroxypropan-2-yl)-3-ethyl-10,13-dimethylhexadecahydro-1H-cyclopenta[a]phenanthren-3-ol]: less than -40%.

Consider `CC[C@]1(O)CC[C@@]2(C)C(=CC[C@H]3[C@@H]4CC[C@H]([C@H](C)[C@@H](O)CC5(C)COC5)[C@@]4(C)CC[C@@H]32)C1` [Compound 70, (3S,8S,9S,10R,13S,14S,17R)-3-ethyl-17-((2S,3S)-3-hydroxy-4-(3-methyloxetan-3-yl)butan-2-yl)-10,13-dimethyl-2,3,4,7,8,9,10,11,12,13,14,15,16,17-tetradecahydro-1H-cyclopenta[a]phenanthren-3-ol], for which the activation at 1 µM was -40 to -10%.

As to `CC[C@H](O)[C@@H](C)[C@H]1CC[C@H]2[C@@H]3CC[C@H]4C[C@](O)(CC)CC[C@]4(C)[C@H]3CC[C@]12C` [Compound 21, (3S,5S,8R,9S,10S,13S,14S,17R)-3-ethyl-17-((2S,3S)-3-hydroxypentan-2-yl)-10,13-dimethylhexadecahydro-1H-cyclopenta[a]phenanthren-3-ol], the activation at 1 µM is -40 to -10%. The value for `C[C@H]([C@@H](O)C(F)(F)F)[C@H]1CC[C@H]2[C@@H]3CC=C4C[C@](O)(C(F)(F)F)CC[C@]4(C)[C@H]3CC[C@]12C` [Compound 53, (3S,8S,9S,10R,13S,14S,17R)-10,13-dimethyl-17-((2S,3R)-4,4,4-trifluoro-3-hydroxybutan-2-yl)-3-(trifluoromethyl)-2,3,4,7,8,9,10,11,12,13,14,15,16,17-tetradecahydro-1H-cyclopenta[a]phenanthren-3-ol] was -40 to -10%. As for `C[C@H]([C@H](C)O)[C@H]1CC[C@H]2[C@@H]3CC[C@H]4C[C@](O)(C(F)(F)F)CC[C@]4(C)[C@H]3CC[C@]12C` [Compound 91, (3S,5S,8R,9S,10S,13S,14S,17R)-17-((2S,3S)-3-hydroxybutan-2-yl)-10,13-dimethyl-3-(trifluoromethyl)hexadecahydro-1H-cyclopenta[a]phenanthren-3-ol], the activation at 1 µM was -40 to -10%. The value for `COC[C@]1(O)CC[C@H]2[C@H](CC[C@@H]3[C@@H]2CC[C@]2(C)[C@@H]([C@H](C)[C@@H](O)C(F)(F)F)CC[C@@H]32)C1` [Compound 45, (3S,5R,8R,9R,10S,13S,14S,17R)-3-(methoxymethyl)-13-methyl-17-((2S,3R)-4,4,4-trifluoro-3-hydroxybutan-2-yl)hexadecahydro-1H-cyclopenta[a]phenanthren-3-ol] was -40 to -10%; that for `COC[C@]1(O)CC[C@@]2(C)C(=CC[C@H]3[C@@H]4CC[C@H]([C@H](C)[C@H](O)C(F)(F)F)[C@@]4(C)CC[C@@H]32)C1` [Compound 39, (3S,8S,9S,10R,13S,14S,17R)-3-(methoxymethyl)-10,13-dimethyl-17-((2S,3S)-4,4,4-trifluoro-3-hydroxybutan-2-yl)-2,3,4,7,8,9,10,11,12,13,14,15,16,17-tetradecahydro-1H-cyclopenta[a]phenanthren-3-ol] was -40 to -10%. The same measure for `COC[C@]1(O)CC[C@@]2(C)C(=CC[C@H]3[C@@H]4CC[C@H]([C@H](C)[C@@H](O)C(F)(F)F)[C@@]4(C)CC[C@@H]32)C1` [Compound 95, (3S,8S,9S,10R,13S,14S,17R)-3-(methoxymethyl)-10,13-dimethyl-17-((2S,3R)-4,4,4-trifluoro-3-hydroxybutan-2-yl)-2,3,4,7,8,9,10,11,12,13,14,15,16,17-tetradecahydro-1H-cyclopenta[a]phenanthren-3-ol]: less than -40%. Take `CC(C)CC[C@@H](O)[C@@H](C)[C@H]1CC[C@H]2[C@@H]3CC[C@H]4C[C@@](C)(O)CC[C@@H]4[C@H]3CC[C@]12C` [Compound 88, (3S,5S,8R,9R,10S,13S,14S,17R)-17-((2S,3R)-3-hydroxy-6-methylheptan-2-yl)-3,13-dimethylhexadecahydro-1H-cyclopenta[a]phenanthren-3-ol]: the activation at 1 µM is -40 to -10%. The same measure for `CC[C@]1(O)CC[C@@]2(C)[C@@H](CC[C@@H]3[C@@H]2CC[C@]2(C)[C@@H]([C@H](C)[C@H](O)c4ccccc4)CC[C@@H]32)C1` [Compound 19, (3S,5S,8R,9S,10S,13S,14S,17R)-3-ethyl-17-((1S,2S)-1-hydroxy-1-phenylpropan-2-yl)-10,13-dimethylhexadecahydro-1H-cyclopenta[a]phenanthren-3-ol]: -40 to -10%.
